# Measured values taken from patent publication US5688769A, “Treatment method” (Uclaf; Roussel, priority 1979, dated 1997).
# Columns and labels:
# [1] = system: testicular steriodogenosis; assay: Inhibitory activity on testicular steroidogenesis in a patient with prostate cancer; type: in vivo, human; conditions: intranasal 500 μg twice a day
# Description: The results are reported in the graphs of sheet 2 of the Figures.
# [2] = system: testicular steroidogensis; assay: Inhibitory activity against testicular steroidogenesis in men in good health, single intranasal dose; type: in vivo; conditions: human, single intranasal dose 500 μg
# Experimental: The said product was administered intranasally at a dose of 500 μg in a few drops of distilled water at 8 A.M. on the third day of the test. For 2 days prior to the treatment and for 6 days after the treatment, samples of blood were taken daily at 8 A.M., 3 P.M. and 10 P.M. On the day of administration of the LH-RH agonist, blood samples were taken at 11 A.M. and 6 P.M.
# The seric concentrations of LH and FSH were measured by radioimmuno-logic dosages with double antibodies and the antibodies for measuring LH and FSH were furnished by the National Pituitary Agency of N.I.H. in Bethesda, Md. The seric concentrations of steroids was measured by radioimmuno-logic dosages in which one ml of serum was extracted with ether and the steroids were separated on a LH-20 column before measuring with radioimmuno-logic dosages. The radioimmuno-logic dosage results were determined by a program derived from model II of Rodbard et al [Second Karolinska Symposium on Research Methods in Reproductive Endocrinology, Diezfalusky Editor, Copenhague (1970), p. 79-103]. The statistical significance was determined by the "multiple level test" of Duncan-Kramer [Kramer, Biometrics, Vol 12 (1956), p. 307]. The results are shown in the FIGS. 1A to 1H filed herewith.
# ovarian steroidogenosis = assay: Inhibitory activity on ovarian steroidogenesis in women; type: in vivo; conditions: for reduction of seric levels of progesterone as compared to the controls: typical subject (FIGS. 3A-3D)
# Experimental: The inhibitory activity of D Ser (Tbu)^6 or Gly^10 LH-RH ethylamide on ovarian steroidogenosis in women was determined on 6 women aged 26 to 35 years with normal and regular menstrual cycles and without prior endocrinal or gynecological problems. […] […] Daily blood samples were taken between 4 and 6 P.M. to measure seric levels of LH, FSH, progesterone and estradiol which were determined by radioimmuno-logic tests with double antibodies. The antibodies to measure LH and FSH were furnished by the National Pituitory Agency of N.I.H. of Bethesda, Md.
# Estradiol and progesterone were measured with highly specific antibodies developed against 7-(O-carboxymethyl)-oxime of estradiol and 12-(O-carboxymethyl)-oxime of progesterone, respectively [3H] 17β-estradiol and ^125 I-progesterone-12-[0-carboxymethyl)-oxime]used as tracers. The serum was extracted with benzene and the steroids were separated with a LH 20 column before the determination. The radioimmunological results were exploited by the program derived from model II of Rodbard and Lewald as in Example 1 and the statistical significance was measured by the multiple level test of Ducan-Kramer of Example 1. The results are shown in the graphs of sheets 1 to 16 of the Figures.
structure (smiles),measurement,setting,value
CCNC(=O)[C@@H]1CCCN1C(=O)[C@H](CCCNC(=N)N)NC(=O)[C@H](CC(C)C)NC(=O)[C@@H](COC(C)(C)C)NC(=O)[C@H](Cc1ccc(O)cc1)NC(=O)[C@H](CO)NC(=O)[C@H](Cc1c[nH]c2ccccc12)NC(=O)[C@H](Cc1c[nH]cn1)NC(=O)[C@@H]1CCC(=O)N1 [D Ser (Tbu)^6 of Gly^10 LH-RH ethylamide],"androgenic steroids, plasmatic level",[1],diminution
same,level of testosterone,[1]; two weeks of treatment,stabilized at a very low level
same,duration of the lessening of cyclicity and drop of seric levels of testicular steroids,[2],3 days
same,"level of seric progesterone, course",ovarian steroidogenosis; 2 cycles of treatment (FIGS. 4A-4F),accelerated diminution
same,"level of progesterone, % of control values (pretreatment cycles = 100%)",ovarian steroidogenosis; 12 cycles of post-treatment,99%
same,"level of progesterone, % of control values (pretreatment cycles = 100%)",ovarian steroidogenosis; 12 cycles of treatment,46%
same,level of progesterone reduced as compared to the controls,"ovarian steroidogenosis; all 12 treatment cycles (FIGS. 5A-5L), scale 13 to 127%",46%
same,reduction of seric levels of progesterone as compared to the controls,"ovarian steroidogenosis; first of the 2 cycles of treatment, intranasal 500 μg at 8 A.M. and 5 P.M. of one day",13%
same,reduction of seric levels of progesterone as compared to the controls,ovarian steroidogenosis; second of the 2 cycles of treatment,34%
